Laboratory results taken from patent US20130053392A1, “CARBONIC ANHYDRASE INHIBITORS” (priority 2010, published 2013).
Entries after “also recorded” stand apart in the source; their conditions may differ. Read-outs that look alike come from different tables or passages of the source.

Tests used:
hCA II = target: T1, hCA II (Homo sapiens, UniProt P00918); test: CA-catalysed CO2 hydration stopped-flow inhibition assay, hCA II; type: biochemical
T1 construct: made in house
Procedure: (§1) Typically, CA inhibition is measured by assaying for CA-catalysed CO2 hydration activity using an appropriate indicator dye. […] Stopped flow spectrophotometry may used to measure the rate of hydration activity.
(§2) The uncatalyzed rates were determined in the same manner and subtracted from the total observed rates. Stock solutions of inhibitor (0.1 mM) were prepared in distilled-deionized water and dilutions up to 0.01 nM were done thereafter with distilled-deionized water Inhibitor and enzyme solutions were preincubated together for 15 min at room temperature in order to allow for the formation of the E-I complex. The inhibition constants were obtained by non-linear least-squares methods using PRISM 3, as reported earlier,^1,2,3 and represent the mean from at least three different determinations. All enzymes were recombinant ones, obtained as reported earlier.^2,3 • 1. Khalifah, R. G. The carbon dioxide hydration activity of carbonic anhydrase. I. Stop-flow kinetic studies on the native human isoenzymes B and C. […] Alterio, V.; Hilvo, M.; Di Fiore, A.; Supuran, C. T.; Pan, P.; Parkkila, S.; Scaloni, A.; Pastorek, J.; Pastorekova, S.; Pedone, C.; Scozzafava, A.; Monti, S. M.; De Simone, G. Crystal structure of the extracellular catalytic domain of the tumor-associated human carbonic anhydrase IX. […] T. Carbonic anhydrase inhibitors: X-ray and molecular modeling study for the interaction of a fluorescent antitumor sulfonamide with isozyme II and IX. J. Am. Chem. Soc. […] J. Am. Chem. Soc.

hCA XII = target: T2, hCA XII (Homo sapiens, UniProt O43570); test: CA-catalysed CO2 hydration stopped-flow inhibition assay, hCA XII; type: biochemical
T2 construct: made in house
Procedure: as §1, §2

hCA I = target: T3, hCA I (Homo sapiens, UniProt P00915); test: CA-catalysed CO2 hydration stopped-flow inhibition assay, hCA I; type: biochemical
T3 construct: made in house
Procedure: as §1, §2

hCA IX = target: T4, hCA IX (Homo sapiens, UniProt Q16790); test: CA-catalysed CO2 hydration stopped-flow inhibition assay, hCA IX; type: biochemical
T4 construct: made in house
Procedure: as §1, §2

[1] = system: EV/2 CA IX expressing cells (HT-29); test: FC11-489A bis binding, plate reader, EV/2 cells; type: cell-based, human; conditions: 100 μM
Text: (§3) Plates were placed in a BMG microplate reader FLUOstare Omega using following protocol: Fluorescence intensity—Well scanning using 5×5 scan matrix in a diameter of 10 mm with 10 flashes per scan point, a gain of 1000 and 355 nm-460 nm filter settings.

[2] = system: 94/1 CA IX knock down cells (HT-29); test: FC11-489A bis binding, flow cytometer, 94/1 cells; conditions: 100 μM, normoxia, hypoxia, reoxygenation, FACS
Procedure: (§7) Single suspensions were obtained by passing cells through 70 μm nylon cell strainers (BD Biosciences). Mean fluorescence intensity was analyzed using a FACSort flow cytometer (BD Biosciences) using FIT-C filter settings.

[3] = system: 94/1 CA IX knock down cells (HT-29); test: FC11-489A bis binding, fluorescence staining, 94/1 cells; type: cell-based, human; conditions: 100 μM, normoxia, hypoxia, reoxygenation, listed as FC11-489A bis
Procedure: (§4) Cells were mounted onto slides with Fluorescence Mounting Medium (DAKO) and analyzed with a Zeiss Axioskop fluorescence microscope using FIT-C filter settings.
(§5) Each staining picture was loaded into Image) analysis software (Image J 1.38x NIH USA, http://rsb.info.nih.gov/ij/Java 1.5.0—17), converted to 8-bit images, thresholded to exclude areas without cells and all remaining pixels were analyzed for their intensity.
(§6) For each oxygen condition, for at least 350 pixels fluorescence intensity was analyzed.

[4] = system: EV/2 CA IX expressing cells (HT-29); test: FC11-489A bis binding, fluorescence staining, EV/2 cells; type: cell-based, human; conditions: 100 μM
Procedure: as §4, §5, §6

[5] = system: EV/2 CA IX expressing cells (HT-29); test: FC11-489A bis binding, flow cytometer, EV/2 cells; conditions: 100 μM, FACS
Procedure: as §7

[6] = system: 94/1 CA IX knock down cells (HT-29); test: FC11-489A bis binding, plate reader, 94/1 cells; type: cell-based, human; conditions: 100 μM, normoxia, hypoxia, reoxygenation
Text: as §3

MDA-231 GFP cells = test: Cell migration (scratch wound) assay, MDA-231; type: cell-based; conditions: 33 μM preliminary screen, 24 h, MDA231, FIG. 7/8
Procedure: A cell migration assay was performed as follows. A coverslip was placed in a 3 cm dish and 0.5×10^6 cells (in 10% FCS-RPMI) was seeded, per 3 cm dish. The cells were left to grow for 24 hours so as to obtain a confluent layer of cells on the coverslip and a scratch was made with a pipette tip (p200) and loosely attached cells were washed off. The medium was replaced with a low serum (0.2% serum) medium to reduce the level of proliferation.
Cells were fixed in buffered formalin and scratches were imaged with ImageJ and the extent of wound closure was calculated.
A series of 11 compounds were assayed in scratch wound assays to evaluate the effect of CA-IX inhibition on cellular migration in air and hypoxia. […] Cells were then cultured in air or hypoxia and migration analysed 24 h later relative to vehicle treated controls.

[7] = Table 2, sulfamides 7 and 8, read-out: Ki hCAIX

T2 sequence (O43570 25-354): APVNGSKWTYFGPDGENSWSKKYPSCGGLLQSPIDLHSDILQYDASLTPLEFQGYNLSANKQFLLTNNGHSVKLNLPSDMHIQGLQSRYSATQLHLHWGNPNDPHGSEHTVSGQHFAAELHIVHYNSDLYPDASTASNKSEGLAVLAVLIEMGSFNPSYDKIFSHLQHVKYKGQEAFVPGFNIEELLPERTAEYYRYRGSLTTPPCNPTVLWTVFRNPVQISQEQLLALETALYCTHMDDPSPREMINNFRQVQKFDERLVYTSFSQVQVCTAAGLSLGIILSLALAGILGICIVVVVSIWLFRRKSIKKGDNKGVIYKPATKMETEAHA
T3 sequence (P00915 whole entry): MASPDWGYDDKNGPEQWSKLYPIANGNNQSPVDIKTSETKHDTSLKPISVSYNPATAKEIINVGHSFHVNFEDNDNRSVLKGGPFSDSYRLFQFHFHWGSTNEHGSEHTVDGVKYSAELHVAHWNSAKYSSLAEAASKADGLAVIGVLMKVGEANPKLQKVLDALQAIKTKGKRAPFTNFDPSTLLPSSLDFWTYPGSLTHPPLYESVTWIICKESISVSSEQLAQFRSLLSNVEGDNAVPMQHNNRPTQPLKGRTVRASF

Row | Structure (SMILES) | Ki (hCA II; Table 2, sulfamides 7 and 8) [nM] | Ki (hCA XII; Table 2, sulfamides 7 and 8) [nM] | Ki (hCA I; Table 2, sulfamides 7 and 8) [nM] | KiCAII/KiCAIX (hCA IX; Table 2, selectivity ratio) | Ki (hCA IX; [7]) [nM] | also measured
1 | NS(=O)(=O)Nc1ccc(NC(=O)NC2CCCCC2)cc1 [Compound 7k] | 354 | 98 | 4000 | 2.9 | 121 | 
2 | NS(=O)(=O)Nc1ccc(NC(=O)NCc2ccco2)cc1 [Compound 7a] | 345 | 12 | 6800 | 18.1 | 19 | 
3 | NS(=O)(=O)Oc1ccc(NC(=S)Nc2ccc(-c3c4ccc(=O)cc-4oc4cc(O)ccc34)c(C(=O)O)c2)cc1 [Compound 20, 2-(3-Hydroxy-6-oxo-6H-xanthen-9-yl)-5-(3-(4-(sulfamoyloxy)phenyl)thioureido)benzoic acid] |  |  |  |  |  | binding upon reoxygenation versus hypoxic conditions ([1]; 24 h hypoxia then 1 h air): dramatically reduced; binding (fluorescence intensity), hypoxia versus normoxia ([1]; hypoxia 0.2% 24 h, FIG. 12): significant higher binding; binding at CA IX knock down cells [2]: No significant binding; binding at CA IX knock down cells [3]: lower for all experimental conditions compared to the EV/2 cells; also recorded: No significant binding; binding upon reoxygenation ([4]; 24 h hypoxia then 1 h air, listed as FC11-489A bis): reduced upon reoxygenation to levels similar as normoxia exposure; also recorded: dramatically reduced; binding (immunofluorescence), hypoxia versus normoxia ([4]; hypoxia 0.2% 24 h, FIG. 14/15, listed as FC11-489A bis): significant higher binding; binding upon reoxygenation versus hypoxic conditions ([5]; 24 h hypoxia then 1 h air): dramatically reduced; binding (mean fluorescence intensity), hypoxia versus normoxia ([5]; hypoxia 0.2% 24 h, FIG. 13): significant higher binding; Ki (hCA IX; Table 3, stopped flow assay): 14 nM; binding at CA IX knock down cells [6]: No significant binding
4 | NS(=O)(=O)Oc1ccc(NC(=O)Nc2c(F)c(F)c(F)c(F)c2F)cc1 [Compound 3i, 4-[(pentafluorophenyl)ureido]phenyl sulfamate] |  |  |  |  |  | cellular migration in air and hypoxia relative to vehicle (MDA-231 GFP cells): inhibitory effects against hypoxic cell migration at concentrations that had minimal effects in air
5 | CN1CCN(CCNC(=O)Nc2ccc(OS(N)(=O)=O)cc2)CC1 [Compound 3bg, 4-[(4-N-methyl-piperazine-ethyl)ureido]phenyl sulfamate] |  |  |  |  |  | Ki (hCA II; Table 1, sulfamates 3): 301 nM; Ki (hCA XII; Table 1, sulfamates 3): 12 nM; Ki (hCA I; Table 1, sulfamates 3): 4100 nM; KiCAII/KiCAIX (hCA IX; Table 1, selectivity ratio): 18.8; Ki (hCA IX; Table 1, sulfamates 3, read-out: Ki hCAIX): 16 nM
6 | NS(=O)(=O)Oc1ccc(NC(=O)Nc2ccc(Oc3ccccc3)cc2)cc1 [Compound 3h, 4-[(4-phenoxyphenyl)ureido]phenyl sulfamate] |  |  |  |  |  | cellular migration in air and hypoxia relative to vehicle (MDA-231 GFP cells): inhibitory effects against hypoxic cell migration at concentrations that had minimal effects in air

More lines, main results first:

Row | Ki (hCA II; Table 2, sulfamides 7 and 8) [nM] | Ki (hCA XII; Table 2, sulfamides 7 and 8) [nM] | Ki (hCA I; Table 2, sulfamides 7 and 8) [nM] | KiCAII/KiCAIX (hCA IX; Table 2, selectivity ratio) | Ki (hCA IX; [7]) [nM] | Structure (SMILES) | also measured
7 | 138 | 14 | 3590 | 5.8 | 24 | CC(=O)c1ccc(NC(=O)NCc2ccc(NS(N)(=O)=O)cc2)cc1 [Compound 8e] | 
8 | 315 | 25 | 3760 | 7.3 | 43 | NS(=O)(=O)Nc1ccc(NC(=O)Nc2ccc(Cl)cc2)cc1 [Compound 7o] | 
9 | 673 | 54 | 8340 | 6.8 | 98 | CC(C)c1ccccc1NC(=O)Nc1ccc(NS(N)(=O)=O)cc1 [Compound 7g] | 
10 | 365 | 13 | 2310 | 33.2 | 11 | COc1ccc(NC(=O)NCc2ccc(NS(N)(=O)=O)cc2)cc1 [Compound 8c] | 
11 | 894 | 240 | 10500 | 6.1 | 145 | NS(=O)(=O)Nc1ccc(NC(=O)Nc2ccccc2-c2ccccc2)cc1 [Compound 7i] | 
12 | 312 | 9 | 1540 | 19.5 | 16 | CCCCOc1ccc(NC(=O)Nc2ccc(NS(N)(=O)=O)cc2)cc1 [Compound 7n] | 
13 | 436 | 26 | 4300 | 10.9 | 40 | COc1ccc(C)cc1NC(=O)Nc1ccc(NS(N)(=O)=O)cc1 [Compound 7f] | 
14 | 343 | 30 | 3800 | 16.3 | 21 | Cc1ccccc1NC(=O)NCc1ccc(NS(N)(=O)=O)cc1 [Compound 8g] | 
15 | 48 | 22 | 1340 | 4.0 | 12 | CN(C)c1ccc(NC(=O)NCc2ccc(NS(N)(=O)=O)cc2)cc1 [Compound 8f] | 
